Measurements published in ChEMBL document CHEMBL5053521 (Bioorg Med Chem Lett, 2021).

Columns and labels:
Histamine H2 receptor [1] = biological target: T1, Histamine H2 receptor (Homo sapiens, UniProt P25021); experiment: Agonist activity at human H2 receptor expressed in Sf9 cell membranes co-exprssing GsalphaS assessed as stimulation of [35S]GTPgammaS binding incubated for 90 mins by scintillation counting analysis; type: functional, Membrane
Histamine H2 receptor [2] = biological target: T1, Histamine H2 receptor; experiment: Agonist activity at NlucN/mini-Gi protein-fused human H2R stably expressed in HEK293T cells assessed as induction of mini-Gi protein recruitment using furimazine as substrate measured for 45 mins by luminescence assay; type: functional, cell-based
Histamine H2 receptor [3] = biological target: T1, Histamine H2 receptor; experiment: Displacement of [3H]UR-DE257 from Gsalphas-coupled human H2R expressed in Sf9 cell membranes by competitive binding assay; design: species or system Membrane
Histamine H2 receptor [4] = biological target: T1, Histamine H2 receptor; experiment: Binding affinity to human H2R expressed in HEK293T-qs5-HA cells by flow cytometry analysis; type: cell-based
Histamine H2 receptor [5] = biological target: T1, Histamine H2 receptor; experiment: Agonist activity at human H2 receptor expressed in HEK293T-ARRB2 cells assessed as stimulation of beta-arrestin 2 recruitment; type: functional, cell-based
Histamine H2 receptor [6] = biological target: T1, Histamine H2 receptor; experiment: Agonist activity at human H2 receptor expressed in HEK293T-ARRB1 cells assessed as stimulation of beta-arrestin 1 recruitment; type: functional, cell-based
Histamine H2 receptor [7] = biological target: T1, Histamine H2 receptor; experiment: Agonist activity at human H2 receptor expressed in HEK293T-ARRB1 cells assessed as stimulation of beta-arrestin 1 recruitment by measuring maximum efficacy; type: functional, cell-based; conditions: filed as agonist

T1 sequence (P25021 whole entry, the tested form may be a part): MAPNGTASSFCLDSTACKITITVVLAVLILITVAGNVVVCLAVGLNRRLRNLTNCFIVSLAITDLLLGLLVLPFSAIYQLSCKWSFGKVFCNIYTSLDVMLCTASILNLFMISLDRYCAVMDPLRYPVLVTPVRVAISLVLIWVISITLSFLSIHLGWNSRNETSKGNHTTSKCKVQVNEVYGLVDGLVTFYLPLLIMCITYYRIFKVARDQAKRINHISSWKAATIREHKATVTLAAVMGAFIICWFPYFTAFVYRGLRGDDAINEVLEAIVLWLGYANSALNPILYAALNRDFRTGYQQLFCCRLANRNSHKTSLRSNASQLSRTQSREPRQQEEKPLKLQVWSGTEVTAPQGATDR

EC50 (Histamine H2 receptor [1]) | EC50 (Histamine H2 receptor [2]) | Ki (Histamine H2 receptor [3]) | Kd (Histamine H2 receptor [4]) | EC50 (Histamine H2 receptor [5]) | EC50 (Histamine H2 receptor [6]) | Emax (Histamine H2 receptor [7]) | SMILES
676 nM | 1450 nM | 95.5 nM | 229 nM |  |  |  | Cc1nc(N)sc1CCCN/C(N)=N/C(=O)NCCCCCCCCCCNC(=O)CCCCCN1/C(=C/C=C/C=C/C2=[N+](CCCCS(=O)(=O)[O-])c3ccccc3C2(C)C)c2ccccc2C1(C)C
2400 nM | 2040 nM | > 1000 nM |  |  |  |  | Cc1nc(N)sc1CCCN/C(N)=N/C(=O)NCCCCCCCCCCNC(=O)CCCCCN1/C(=C/C=C/C=C/C2=[N+](CCCCS(=O)(=O)O)c3ccccc3C2(C)C)c2cc(S(=O)(=O)[O-])ccc2C1(C)C
120 nM | 339 nM | 66.1 nM | 56.2 nM | 115 nM | 427 nM | 0.25 | CC1(C)C(/C=C/C=C/C=C2\c3ccccc3C(C)(C)N2CCCCCC(=O)NCCCCCCCCNC(=O)/N=C(\N)NCCCc2c[nH]cn2)=[N+](CCCCS(=O)(=O)[O-])c2ccccc21
 |  |  |  |  |  | 1 | NCCc1c[nH]cn1
339 nM | 1100 nM | 562 nM | 70.8 nM | 129 nM | 617 nM | 0.09 | Cc1nc(N)sc1CCCN/C(N)=N/C(=O)NCCCCCCCCNC(=O)CCCCCN1/C(=C/C=C/C=C/C2=[N+](CCCCS(=O)(=O)[O-])c3ccccc3C2(C)C)c2ccccc2C1(C)C
72.4 nM |  | 30.1 nM | 81.3 nM |  |  |  | Cc1nc(N)sc1CCCN/C(N)=N/C(=O)NCCCCCCCCNC(=O)CCCCCNC(=O)COc1ccc(/C=C/C2=[N+]3C(=Cc4ccc(-c5cccs5)n4[B-]3(F)F)C=C2)cc1
100 nM | 257 nM | 263 nM | 112 nM | 64.6 nM | 339 nM | 0.55 | CC1(C)C(/C=C/C=C/C=C2\c3ccccc3C(C)(C)N2CCCCCC(=O)NCCCCCCCCNC(=O)/N=C(\N)NCCCc2nnc(N)s2)=[N+](CCCCS(=O)(=O)[O-])c2ccccc21
186 nM | 501 nM | 21.9 nM | 33 nM | 191 nM | 513 nM | 0.57 | Cc1nc(N)sc1CCCN/C(N)=N/C(=O)NCCCCCCNC(=O)CCCCCN1/C(=C/C=C/C=C/C2=[N+](C)c3ccccc3C2(C)C)c2ccccc2C1(C)C
1290 nM | 759 nM | 263 nM | > 1000 nM |  |  |  | Cc1nc(N)sc1CCCN/C(N)=N/C(=O)NCCCCCCCCNC(=O)CCCCCN1/C(=C/C=C/C=C/C2=[N+](CCCCS(=O)(=O)O)c3ccccc3C2(C)C)c2cc(S(=O)(=O)[O-])ccc2C1(C)C
562 nM | 3890 nM | 251 nM | 1000 nM |  |  |  | Cc1nc(N)sc1CCCN/C(N)=N/C(=O)NCCCCCCNC(=O)CCCCCN1/C(=C/C=C/C=C/C2=[N+](CCCCS(=O)(=O)[O-])c3ccccc3C2(C)C)c2ccccc2C1(C)C
